Results as given in ChEMBL document CHEMBL6109064, “Functional and structural polypharmacology of indazole-based privileged ligands to tackle the undruggability of membrane transporters” (Eur J Med Chem, 2025).
Activity calls are given as the source filed them. No cut-off for these calls is given here.

Tests used:
Type in all cases: cell-based
[1] = molecular target: Sodium-dependent dopamine transporter (Homo sapiens) (UniProt Q01959); assay: Inhibition of DAT (unknown origin) expressed in HEK293 cells assessed as inhibition of MPP+ transport incubated for 5 mins by tandem mass spectrometry
Sodium-dependent dopamine transporter (Homo sapiens), sequence (Q01959 whole entry): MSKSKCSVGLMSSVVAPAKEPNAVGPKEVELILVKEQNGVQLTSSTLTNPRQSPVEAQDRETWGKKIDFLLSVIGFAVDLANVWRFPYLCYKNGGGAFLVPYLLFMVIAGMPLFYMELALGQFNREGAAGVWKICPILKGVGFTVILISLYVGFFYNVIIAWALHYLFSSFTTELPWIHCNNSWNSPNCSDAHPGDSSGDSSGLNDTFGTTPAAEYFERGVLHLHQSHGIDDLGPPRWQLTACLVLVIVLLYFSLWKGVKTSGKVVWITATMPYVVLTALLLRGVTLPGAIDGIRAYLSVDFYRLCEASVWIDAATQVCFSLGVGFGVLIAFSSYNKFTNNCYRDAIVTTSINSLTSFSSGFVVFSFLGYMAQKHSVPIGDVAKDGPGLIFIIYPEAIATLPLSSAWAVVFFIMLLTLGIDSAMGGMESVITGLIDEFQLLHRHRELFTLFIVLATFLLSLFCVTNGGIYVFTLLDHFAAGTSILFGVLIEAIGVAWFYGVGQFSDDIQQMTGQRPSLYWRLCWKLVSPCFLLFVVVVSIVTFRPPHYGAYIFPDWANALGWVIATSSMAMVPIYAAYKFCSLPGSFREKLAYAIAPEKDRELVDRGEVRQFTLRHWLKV

[2] = molecular target: ATP-dependent translocase ABCB1 (Homo sapiens, UniProt P08183); assay: Inhibition of ABCB1 in human A2780 ADR cells assessed as increase in calcein-AM fluorescence intensity using calcein-AM as tracer preincubated for 30 mins followed by calcein-AM addition and measured within 30 mins at 30s intervals by fluorescence based analysis
ATP-dependent translocase ABCB1, sequence (P08183 whole entry): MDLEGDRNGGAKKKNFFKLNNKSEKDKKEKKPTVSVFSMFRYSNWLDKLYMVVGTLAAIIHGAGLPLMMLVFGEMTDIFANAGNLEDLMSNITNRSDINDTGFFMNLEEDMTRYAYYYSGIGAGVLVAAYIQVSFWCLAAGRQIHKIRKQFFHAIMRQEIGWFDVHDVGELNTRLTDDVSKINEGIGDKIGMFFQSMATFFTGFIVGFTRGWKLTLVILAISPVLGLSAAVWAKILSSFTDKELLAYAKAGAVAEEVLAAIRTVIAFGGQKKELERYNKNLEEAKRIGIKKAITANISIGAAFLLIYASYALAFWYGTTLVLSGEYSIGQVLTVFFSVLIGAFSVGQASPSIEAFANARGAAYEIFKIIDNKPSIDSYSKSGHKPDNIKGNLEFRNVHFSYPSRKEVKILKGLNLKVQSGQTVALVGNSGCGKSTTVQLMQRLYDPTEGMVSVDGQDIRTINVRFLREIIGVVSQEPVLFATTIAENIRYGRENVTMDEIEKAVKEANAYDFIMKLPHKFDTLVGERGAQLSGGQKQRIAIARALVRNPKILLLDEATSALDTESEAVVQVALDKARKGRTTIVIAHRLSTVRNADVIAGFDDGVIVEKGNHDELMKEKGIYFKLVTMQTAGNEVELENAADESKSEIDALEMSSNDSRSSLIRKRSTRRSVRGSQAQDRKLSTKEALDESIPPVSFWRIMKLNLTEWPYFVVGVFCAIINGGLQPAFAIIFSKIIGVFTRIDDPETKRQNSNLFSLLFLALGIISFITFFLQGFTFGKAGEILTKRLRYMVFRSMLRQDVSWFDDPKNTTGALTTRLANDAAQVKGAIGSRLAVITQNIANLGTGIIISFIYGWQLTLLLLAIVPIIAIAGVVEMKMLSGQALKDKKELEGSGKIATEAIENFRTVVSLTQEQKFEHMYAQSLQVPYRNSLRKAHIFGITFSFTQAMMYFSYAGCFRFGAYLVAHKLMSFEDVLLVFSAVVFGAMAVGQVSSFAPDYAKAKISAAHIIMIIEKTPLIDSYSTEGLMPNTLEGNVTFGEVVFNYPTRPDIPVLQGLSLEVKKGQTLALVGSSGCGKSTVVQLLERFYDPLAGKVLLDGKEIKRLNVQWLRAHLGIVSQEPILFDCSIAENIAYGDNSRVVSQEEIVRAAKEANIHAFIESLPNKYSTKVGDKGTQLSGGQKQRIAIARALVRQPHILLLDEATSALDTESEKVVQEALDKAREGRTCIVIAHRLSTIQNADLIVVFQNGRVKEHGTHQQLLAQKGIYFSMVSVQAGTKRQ

[3] = molecular target: Multidrug resistance-associated protein 1 (Homo sapiens, UniProt P33527); assay: Inhibition of ABCC1 in human NCI-H69AR cells assessed as increase in rhodamine123 fluorescence intensity using rhodamine123 as tracer preincubated for 30 mins followed by rhodamine 123 addition and measured for 180 mins by flow cytometry
Multidrug resistance-associated protein 1, sequence (P33527 whole entry): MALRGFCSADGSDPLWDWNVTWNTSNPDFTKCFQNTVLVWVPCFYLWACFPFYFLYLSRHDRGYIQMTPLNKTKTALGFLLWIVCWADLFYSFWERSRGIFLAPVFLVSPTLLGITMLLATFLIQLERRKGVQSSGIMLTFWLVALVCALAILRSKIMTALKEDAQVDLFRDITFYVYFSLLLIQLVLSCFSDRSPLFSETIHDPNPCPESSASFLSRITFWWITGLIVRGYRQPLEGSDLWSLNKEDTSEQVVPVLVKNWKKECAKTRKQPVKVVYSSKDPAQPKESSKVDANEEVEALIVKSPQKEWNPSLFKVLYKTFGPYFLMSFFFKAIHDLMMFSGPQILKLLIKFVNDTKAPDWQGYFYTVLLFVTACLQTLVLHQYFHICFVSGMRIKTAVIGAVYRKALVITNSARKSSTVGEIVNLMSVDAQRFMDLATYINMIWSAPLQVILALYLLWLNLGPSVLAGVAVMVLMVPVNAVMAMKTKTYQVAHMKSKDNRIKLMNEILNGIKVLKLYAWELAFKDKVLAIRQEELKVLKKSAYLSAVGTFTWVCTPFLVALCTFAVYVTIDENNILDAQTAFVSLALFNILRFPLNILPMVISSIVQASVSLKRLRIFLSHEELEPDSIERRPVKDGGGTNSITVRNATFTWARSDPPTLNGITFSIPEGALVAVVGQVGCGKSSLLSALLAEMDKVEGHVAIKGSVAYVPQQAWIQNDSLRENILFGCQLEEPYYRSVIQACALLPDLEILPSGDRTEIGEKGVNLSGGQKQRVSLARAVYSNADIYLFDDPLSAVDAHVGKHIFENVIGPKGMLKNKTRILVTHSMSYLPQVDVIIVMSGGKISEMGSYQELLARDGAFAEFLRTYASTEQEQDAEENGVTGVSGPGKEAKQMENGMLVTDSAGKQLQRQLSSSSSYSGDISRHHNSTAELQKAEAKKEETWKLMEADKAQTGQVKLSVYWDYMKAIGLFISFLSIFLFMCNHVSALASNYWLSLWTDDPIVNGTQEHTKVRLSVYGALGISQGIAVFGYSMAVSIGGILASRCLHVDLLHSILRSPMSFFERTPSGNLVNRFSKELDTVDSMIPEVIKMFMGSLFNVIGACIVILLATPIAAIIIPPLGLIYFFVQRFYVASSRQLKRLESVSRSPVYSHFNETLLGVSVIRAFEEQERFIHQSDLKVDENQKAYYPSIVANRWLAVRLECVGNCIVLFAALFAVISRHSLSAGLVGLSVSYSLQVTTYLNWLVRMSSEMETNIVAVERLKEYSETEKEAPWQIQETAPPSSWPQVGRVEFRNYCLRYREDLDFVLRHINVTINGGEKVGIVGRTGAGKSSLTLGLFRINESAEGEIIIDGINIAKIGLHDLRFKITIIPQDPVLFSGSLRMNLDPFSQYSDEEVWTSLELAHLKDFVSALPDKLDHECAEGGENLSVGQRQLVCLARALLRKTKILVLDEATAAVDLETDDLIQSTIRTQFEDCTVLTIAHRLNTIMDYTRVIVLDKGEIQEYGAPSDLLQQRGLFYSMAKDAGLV

[4] = molecular target: T1, Solute carrier organic anion transporter family member 1A2 (Homo sapiens, UniProt P46721); assay: Inhibition of OATP1A2 (unknown origin) transfected in human A-431 cells assessed as inhibition of SR101 uptake preincubated for 5 mins followed by SR101 addition and measured after 10 mins by fluorescence based analysis
T1 sequence (P46721 whole entry): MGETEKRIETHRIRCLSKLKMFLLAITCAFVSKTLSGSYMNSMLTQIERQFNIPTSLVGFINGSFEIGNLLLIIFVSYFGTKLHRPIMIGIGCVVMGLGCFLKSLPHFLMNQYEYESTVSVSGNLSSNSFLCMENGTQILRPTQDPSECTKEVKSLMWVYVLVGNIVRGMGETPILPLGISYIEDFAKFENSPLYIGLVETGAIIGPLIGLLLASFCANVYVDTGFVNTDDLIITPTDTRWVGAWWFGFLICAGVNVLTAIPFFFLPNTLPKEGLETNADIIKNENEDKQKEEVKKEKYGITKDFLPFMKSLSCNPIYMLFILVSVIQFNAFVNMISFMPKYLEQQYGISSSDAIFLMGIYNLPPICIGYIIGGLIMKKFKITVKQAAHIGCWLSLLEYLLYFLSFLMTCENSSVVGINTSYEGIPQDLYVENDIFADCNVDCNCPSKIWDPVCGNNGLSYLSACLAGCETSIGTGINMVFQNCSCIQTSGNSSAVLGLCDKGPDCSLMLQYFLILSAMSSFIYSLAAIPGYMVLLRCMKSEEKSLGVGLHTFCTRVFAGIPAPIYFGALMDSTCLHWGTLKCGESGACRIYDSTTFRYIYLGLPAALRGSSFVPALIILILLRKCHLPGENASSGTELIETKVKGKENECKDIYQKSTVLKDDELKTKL

[5] = molecular target: T2, Solute carrier family 22 member 1 (Homo sapiens, UniProt O15245); assay: Inhibition of OCT1 (unknown origin) expressed in HEK293 cells assessed as inhibition of ASP+ uptake incubated for 5 mins by fluorescence based analysis; settings: hek293, 5 min
T2 sequence (O15245 whole entry): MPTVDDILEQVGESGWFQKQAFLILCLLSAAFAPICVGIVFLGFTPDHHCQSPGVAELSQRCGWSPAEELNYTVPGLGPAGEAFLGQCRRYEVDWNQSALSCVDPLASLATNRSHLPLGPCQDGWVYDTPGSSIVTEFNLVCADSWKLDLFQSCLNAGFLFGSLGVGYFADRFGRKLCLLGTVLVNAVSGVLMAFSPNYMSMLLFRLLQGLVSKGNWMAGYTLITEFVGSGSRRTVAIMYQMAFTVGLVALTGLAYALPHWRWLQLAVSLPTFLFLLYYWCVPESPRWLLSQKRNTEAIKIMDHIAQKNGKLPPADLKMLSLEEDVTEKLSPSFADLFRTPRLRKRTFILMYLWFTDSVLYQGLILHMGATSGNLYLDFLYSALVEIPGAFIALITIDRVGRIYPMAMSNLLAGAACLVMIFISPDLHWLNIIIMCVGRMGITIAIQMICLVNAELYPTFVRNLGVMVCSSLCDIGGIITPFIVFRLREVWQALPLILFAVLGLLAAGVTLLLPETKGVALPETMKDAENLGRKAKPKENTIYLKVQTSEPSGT

[6] = molecular target: T3, Broad substrate specificity ATP-binding cassette transporter ABCG2 (Homo sapiens, UniProt Q9UNQ0); assay: Inhibition of ABCG2 (unknown origin) expressed in dog MDCK-II-BCRP cells assessed as increase in pheophorbide A fluorescence intensity using pheophorbide as tracer preincubated for 30 mins followed by pheophorbide addition and measured for 180 mins by flow cytometry
T3 sequence (Q9UNQ0 whole entry): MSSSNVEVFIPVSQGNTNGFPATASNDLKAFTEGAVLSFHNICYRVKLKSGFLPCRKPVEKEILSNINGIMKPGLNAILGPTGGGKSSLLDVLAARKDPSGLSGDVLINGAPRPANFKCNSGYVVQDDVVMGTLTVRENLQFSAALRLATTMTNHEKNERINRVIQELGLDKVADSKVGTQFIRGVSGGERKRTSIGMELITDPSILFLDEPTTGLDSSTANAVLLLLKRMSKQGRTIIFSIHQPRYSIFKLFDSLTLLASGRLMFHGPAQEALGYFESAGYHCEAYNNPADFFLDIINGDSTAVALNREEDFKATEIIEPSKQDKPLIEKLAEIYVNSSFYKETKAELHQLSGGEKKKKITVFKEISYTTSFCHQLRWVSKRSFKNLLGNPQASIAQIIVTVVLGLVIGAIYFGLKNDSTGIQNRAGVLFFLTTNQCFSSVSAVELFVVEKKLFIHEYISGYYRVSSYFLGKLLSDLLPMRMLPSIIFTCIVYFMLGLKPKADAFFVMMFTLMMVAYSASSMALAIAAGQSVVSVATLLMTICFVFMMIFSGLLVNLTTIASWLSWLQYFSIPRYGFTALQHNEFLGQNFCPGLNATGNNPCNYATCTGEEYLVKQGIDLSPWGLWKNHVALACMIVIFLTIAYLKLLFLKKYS

Row | inhibition [1] | IC50 [2] [nM] | IC50 ([3]; read-out: IC50) [nM] | IC50 [4] [nM] | inhibition (INH) [5] | IC50 [6] [nM] | IC50 ([3]; nci-h69ar) | SMILES
1 | inactive | 1560 | 3790 | 237 | Not_active | 1660 |  | COc1cccc(NC(=O)c2nn(CC(=O)Nc3ccccc3OC)c3ccccc23)c1
2 | inactive | 626 |  | 1320 | Not_active | 1170 | Not_active | O=C(Cn1nc(C(=O)Nc2ccccn2)c2ccccc21)Nc1cc(Cl)ccc1Cl
3 | inactive | 6120 | 2900 | 422 | Not_active | 14200 |  | O=C(Cn1nc(C(=O)Nc2cccnc2)c2ccccc21)Nc1ccc(Cl)cc1
4 | inactive | 1100 | 2660 | 420 | Not_active | 1330 |  | COc1cccc(NC(=O)Cn2nc(C(=O)Nc3cccc(OC)c3)c3ccccc32)c1
